The subject of test [1] is NCI-H358 subcutaneous xenograft tumors. Description: NCI-H358 mouse xenograft model.
Method: NCI-H358 cells were injected subcutaneously (5×10^6 cells in 0.1 mL of PBS) into the right flanks of 6-8-week-old female BALB/c nude mice and allowed to grow until the average tumor size reached 150-200 mm^3. The mice were then stratified into treatment groups of 4-8 animals and treatment initiated on Day 0. Test compound or vehicle (1% Tween 80, 2% HPMC, and 97% water) was administered orally, once daily, for 21 days. Tumor size was measured twice weekly in two dimensions using a caliper, and the volume was expressed in mm^3 using the formula: V=(a×b^2/2) where a and b are the long and short diameters of the tumor, respectively. Tumor Growth Inhibition (TGI) was calculated for each group using the formula: TGI %=(1−Ti/Vi)×100, where Ti is the mean tumor volume of the treatment group on the measurement day, and Vi is the mean tumor volume of the control group on the measurement day. Animal body weight was monitored regularly as an indicator of toxicity. […] Data points represent the group mean, and error bars represent the standard error of the mean (SEM).
A further test has as its target KRAS G12C protein (Homo sapiens, UniProt P01116, G12C). The test can be described thus: Nucleotide exchange assay (Method III, KRAS G12C/Raf-RBD TR-FRET). In kind it is biochemical. The conditions noted are these: SOS1-mediated exchange of GDP for GTP, 18 hr compound incubation. On the procedure:
Method III. Inhibition of SOS1-mediated exchange of GDP for GTP on the KRAS G12C protein was measured in a biochemical assay that monitors association of KRAS G12C protein with the Ras-binding domain of Raf (Raf-RBD), where the association is coupled to exchange of GDP to GTP on the KRAS G12C protein. The assay was performed at WuXi AppTec (Shanghai, China). Compounds were serially diluted in 3-fold dilutions to 11 concentrations and spotted into the wells of an assay plate in a total volume of 150 nL DMSO per well. A 2× enzyme mix was prepared by diluting GDP-bound, His-tagged KRAS G12C to 25 nM in assay buffer. 10 μL/well of 2× enzyme mix was added to all wells, and the plate was sealed and incubated overnight (18 hr) at 23° C. 4×SOS1/GDP and 4×SOS1/GTP were prepared in assay buffer. 5 μL/well of 4×SOS1/GDP mix was added to negative control wells, 5 μL/well of 4×SOS1/GTP mix was added to the remaining wells, and the plate was further incubated at 23° C. for 1 hr. Finally, FLAG-tagged Raf-RBD is added to the reaction mixture along with a pair of FRET donor- and acceptor-conjugated antibodies specific for the FLAG-tagged Raf-RBD and His-tagged KRAS G12C proteins. A 4×Raf-RBD/Tb-anti-FLAG/D2-anti-His mix was prepared in assay buffer, and 5 μL/well of the mix was added to all wells, followed by incubation at room temperature for 2 hr. The TR-FRET signals, which increase with association of KRAS G12C and Raf-RBD, were measured on a Perkin Elmer Envision 2104 plate reader, and data were analyzed by non-linear regression to obtain IC50 values for inhibition by compounds. Table 2 includes results of the assay of Method III. ‘+++’ indicates IC50 values≤300 nM, ‘++’ indicates IC50 values between 300 nM-3 μM, and ‘+’ indicates IC50 values≥3 μM.

The subject of a further test is NCI-H358 cells. Description: 3D cell proliferation assay (Cell Titer-Glo 3D, 7 days). The format is cell-based. The conditions noted are these: NCI-H358 3D, ultra-low attachment plate. On the procedure:
NCI-H358 cells (ATCC® CRL-5807™) were plated in a 384-well Black/Clear Round Bottom Ultra-Low Attachment Microplate (Corning) in medium (RPMI-1640+10% FBS) at a density of 1000 cells in 50 μL per well, then incubated overnight at 37° C. and 5% CO2. Cells were treated with test compounds at 9 concentrations within a specified concentration range (e.g., 0.5 nM-10 μM) for generation of dose response curves. Test compounds were prepared by 1:3 serial dilution in DMSO from a specified starting concentration (e.g., 20 μM, 2 μM or 0.2 μM) and then added to wells of the assay plate in a total volume of 150 nL DMSO. The cells were further incubated at 37° C. and 5% CO2 for 7 days. Cell viability was assessed by adding 40 μL of Cell Titer-Glo® 3D reagent (Cat. No.: G9683, Promega) to each well and reading luminescence after mixing and incubation of the samples. The IC50 value of each test compound was calculated with XLFit curve fitting software.

The test system of a further test is MIA PaCa-2. Description: Cell proliferation assay panel (Cell Titer-Glo, 72 hr). The format is cell-based. On the procedure: Potency of compounds was determined in cell proliferation assays in a panel of cancer cell lines. Cells were seeded in 384-well plates (Corning, Cat. #3765) at specified densities in 40 μL of culture medium and incubated overnight at 37° C. in a 5% CO2 incubator (culture conditions). With a robotic dispenser, serially diluted test compounds were added in a volume of 20 nL DMSO to wells in the culture plate to achieve the final desired concentrations of test compounds, and the cells were further incubated in culture conditions for 72 hr. The assay was terminated by addition of 25 μL of Cell Titer-Glo reagent (Promega, Madison, Wis.) to each well. Contents were mixed, the plate was incubated for 10 min at room temperature and luminescence was measured. The IC50 value of each test compound was calculated with XLFit curve fitting software. Results are shown in Table 4. ‘+++’ indicates IC50 values≤300 nM, ‘++’ indicates IC50 values between 300 nM-3 μM, and ‘+’ indicates IC50 values≥3 μM.

Test [2] relates to Phosphorylation of ERK in NCI-H358 cells. The test can be described thus: pERK assay (Method II, homogeneous TR-FRET). In kind it is cell-based. Conditions: Homo sapiens, 4 hrs compound treatment. On the procedure:
Method II. Phosphorylation of ERK was assessed by a homogeneous TR-FRET assay (Advanced phospho-ERK (Thr202/Tyr204) cellular kit; Cat. #64AERPEH, Cisbio). In brief, NCI-H358 cells were seeded in a 384-well culture plate at a density of 6000 cells in 40 μL medium/well and grown overnight at 37° C. and 5% CO2. Each test compound was dosed in duplicate in a 10-dose 3-fold titration starting at 10 μM or 2 μM. The culture plate was then incubated for 4 hrs in the incubator. At the end of the compound treatment, the medium was removed, 35 μL of lysis buffer was added to each well, and the plate was agitated on a plate shaker for 40 mins at 4° C. An antibody cocktail of phospho-ERK1/2 Eu Cryptate antibody and Phospho-ERK1/2 d2 antibody was prepared by separately diluting the antibodies 20-fold with detection buffer and then mixing them together. 3.4 μL of antibody cocktail was dispensed to each well of an empty 384-well white ProxiPlus assay plate (Perkin Elmer), and the plate briefly centrifuged. 13.6 μL of cell lysate was then added to the antibody-containing wells, and the plate was briefly centrifuged and then incubated 2 hrs at room temperature. The plate was read on a fluorescence plate reader (Envision2104, Perkin Elmer), with an excitation wavelength of 337 nm and emission wavelengths of 615 nm and 665 nm. The IC50 value of each test compound was calculated with XLFit curve fitting software. Results are shown in Table 6. ‘+++’ indicates IC50 values≤300 nM, ‘++’ indicates IC50 values between 300 nM-3 μM, and ‘+’ indicates IC50 values≥3 μM.

Read-outs that look alike come from different tables or passages of the source.

KRAS G12C protein, sequence (P01116 1-188 isoform P01116-2 G12C): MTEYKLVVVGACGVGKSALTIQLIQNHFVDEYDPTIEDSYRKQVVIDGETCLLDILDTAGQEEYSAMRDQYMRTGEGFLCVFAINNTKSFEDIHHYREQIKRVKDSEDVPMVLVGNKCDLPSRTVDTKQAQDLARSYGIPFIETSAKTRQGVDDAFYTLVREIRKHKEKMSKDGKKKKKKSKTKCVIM

In the case of `C=CC(=O)N1CCN(c2nc(OC[C@@H]3CCCN3C)nc3c2COC(c2cccc4cccc(Cl)c24)C3)C[C@@H]1CC#N` (single isomer, unassigned) [38 (Isomer B)], the TGI in test [1] (10 mg/kg orally once daily, Day 20 after treatment start) stood at 22.4%; in test [1] (30 mg/kg orally once daily, Day 20 after treatment start (day not restated for comparators)), 26.7%; in test [1] (100 mg/kg orally once daily, Day 20 after treatment start), 50.4%. Moreover, the IC50 is ≤ 300 nM at KRAS G12C protein and ≤ 100 nM with NCI-H358 cells (Homo sapiens, NCI-H358, 168 h).

`C=C(F)C(=O)N1CCN(c2nc(OC[C@@H]3CCCN3C)nc3c2COC(c2c(C)ccc4[nH]ncc24)C3)C[C@@H]1CC#N` (single isomer, unassigned) [52 (Isomer B)]: the IC50 against KRAS G12C protein was ≤ 300 nM; in the test on NCI-H358 cells (Homo sapiens, NCI-H358, 168 h) it was 100 to 2000 nM; in the test with MIA PaCa-2 (Homo sapiens, MIA PaCa-2, 72 h) it was 300 to 3000 nM; in test [2], 300 to 3000 nM.

Regarding `C=C(F)C(=O)N1CCN(c2nc(OC[C@@H]3CC(F)(F)CN3C)nc3c2COC(c2cccc4cccc(Cl)c24)C3)C[C@@H]1CC#N` (single isomer, unassigned) [228 (Isomer A)], the IC50 against KRAS G12C protein is ≤ 300 nM; in the test on NCI-H358 cells, ≤ 100 nM; in the test on MIA PaCa-2 (Homo sapiens, MIA PaCa-2, 72 h) it was 300 to 3000 nM.

For the molecule `C=C(Cl)C(=O)N1CCN(c2nc(OC[C@@H]3CCCN3C)nc3c2COC(c2cccc4cccc(Cl)c24)C3)C[C@@H]1CC#N` (single isomer, unassigned) [239 (Isomer B)], the IC50 is ≤ 300 nM at KRAS G12C protein; ≤ 100 nM in the test with NCI-H358 cells (Homo sapiens, NCI-H358, 168 h); ≤ 300 nM in the test with MIA PaCa-2 (Homo sapiens, MIA PaCa-2, 72 h).

As to `C/C=C/C(=O)N1CCN(c2nc(OC[C@@H]3CCCN3C)nc3c2COC(c2cccc4cccc(Cl)c24)C3)C[C@@H]1CC#N` (single isomer, unassigned) [241 (Isomer A)], the concentration for half-maximal inhibition (IC50) at KRAS G12C protein is ≤ 300 nM; with NCI-H358 cells (Homo sapiens, NCI-H358, 168 h) it was ≤ 100 nM; in the test with MIA PaCa-2 (Homo sapiens, MIA PaCa-2, 72 h), 300 to 3000 nM; in test [2], ≤ 300 nM.

With `CC#CC(=O)N1CCN(c2nc(OC[C@@H]3CCCN3C)nc3c2COC(c2cccc4cccc(Cl)c24)C3)C[C@@H]1CC#N` (single isomer, unassigned) [243 (Isomer B)], the IC50 at KRAS G12C protein was ≤ 300 nM; in the test with NCI-H358 cells (Homo sapiens, NCI-H358, 168 h), ≤ 100 nM; in the test with MIA PaCa-2 (Homo sapiens, MIA PaCa-2, 72 h), ≤ 300 nM; in test [2], ≤ 300 nM.

Regarding `C=C(F)C(=O)N1CCN(c2nc(OC[C@@H]3CCCN3C)nc3c2COC(c2cccc4cccc(Cl)c24)C3(C)C)C[C@@H]1CC#N` (single isomer, unassigned) [258 (Isomer B)], the IC50 at KRAS G12C protein is ≤ 300 nM; with NCI-H358 cells (Homo sapiens, NCI-H358, 168 h), ≤ 100 nM; with MIA PaCa-2 (Homo sapiens, MIA PaCa-2, 72 h) it was ≤ 300 nM.

Take `C=C(F)C(=O)N1CCN(c2nc(OC[C@@H]3CCCN3C)nc3c2COC(c2cccc4sc(N)nc24)C3)C[C@@H]1CC#N` (single isomer, unassigned) [260 (Isomer A)]: the IC50 against KRAS G12C protein was ≤ 300 nM; in the test with NCI-H358 cells (Homo sapiens, NCI-H358, 168 h), 100 to 2000 nM; in the test with MIA PaCa-2 (Homo sapiens, MIA PaCa-2, 72 h), 300 to 3000 nM.

Regarding `C=C(F)C(=O)N1CCN(c2nc(OCC34CCCN3CCC4)nc3c2COC(c2cccc4cccc(Cl)c24)C3)C[C@@H]1CC#N` (single isomer, unassigned) [266 (Isomer B)], the IC50 is ≤ 300 nM against KRAS G12C protein; ≤ 100 nM in the test on NCI-H358 cells (Homo sapiens, NCI-H358, 168 h); ≤ 300 nM in the test with MIA PaCa-2.

For the origin of these results see patent US20230023009A1, “HETEROCYCLIC COMPOUNDS AND METHODS OF USE THEREOF” (SPARCBIO LLC, priority 2020, published 2023).
